{
  "source": "patent US20070243215A1",
  "about": "“Adjuvant for Dna Vaccines” (priority 2004, published 2007)",
  "system": "N202/1A tumor cells",
  "assay": "Serum transfer and tumor cell challenge",
  "format": "in vivo",
  "conditions": "150 μL pooled serum from treated donor mice; challenge 24 h later subcutaneously with 10^5 N202/1A tumor cells",
  "procedure": "Animals were treated as in Example 1 for each of the following groups: (1) Immunized with pCMV-ECD-TM, not treated with IRM (HER-2/neu); (2) Immunized with pCMV-ECD-TM, treated with IRM2 (IRM+HER-2/neu); or (3) untreated (Control). Two weeks after the immunization period was completed, sera were harvested from the animals and pooled among animals receiving the same treatment.\n150 μL of pooled serum was injected into eight-week old animals (5 animals/treatment serum). Twenty-four hours after administration of the serum, each mouse was challenged with subcutaneously with 10^5 N202/1A tumor cells and monitored to register the development of tumors.",
  "data": [
    {"compound": "CC(C)Cn1cnc2c(N)nc3ccccc3c21", "note": "[IRM2, 1-(2-methylpropyl)-1H-imidazo[4,5-c]quinolin-4-amine]", "values": [
      {"measurement": "percentage of recipient mice remaining tumor free (protection against tumor development)", "value": "An even greater percentage"}
    ]}
  ]
}
